Source: EP0354693A1, “Therapeutic agents” (The Boots Company PLC, priority 1988, dated 1990)

What follows are molecules tested on BALB/c mice (assay: cutaneous hypersensitivity test (CH test), oxazolone-induced ear swelling). Settings: Mus musculus, ip; intraperitoneal, at sensitisation and every 24 hours for a further 7 days; lowest dose used giving 20% or greater reduction in ear swelling (p <0.05) in two out of three CH tests; read-out: Minimum Effective Dose.
Type: in vivo
Procedure: This test was carried out in the following way.
Female BALB/c mice, weight range 16-24 g, were used in groups of eight. The abdomen of each mouse was shaved and 20 µl of a solution of a sensitising agent, 5% w/v 4-ethoxymethylene-2-phenyl-2-oxazolin-5-one (oxazolone) in acetone:ethanol (1:1 by volume), was applied to the shaved area. Immediately after sensitisation, the test compound in one of the dosages listed below was injected intraperitoneally as a suspension in 1.5% v/v sorbitan esters, under the trade name Tween 80, in sterile water (100µl). 100 µl of the same suspension was injected likewise every 24 hours for a further 7 days. The dosages used were selected from the following values: 50, 30, 10, 3, 1, 0.3, 0.1, 0.03 or 0.01 mg/kg.
Two groups of eight BALB/c mice were used as a control simultaneously with each test in a similar manner to that described above except that no test compound was included in the daily injections.
On the seventh day after sensitisation, 10 µl of a solution of 1% w/v oxazolone in acetone: olive oil (either 1:1 or 3:1 by volume) was applied to one ear (the challenged ear) of each of the test mice and the control mice. After 24 hours the thickness of the challenged ear and the thickness of the non-challenged ear of the same animal were measured with an engineer's screw gauge micrometer. The difference in thickness between the challenged ear and the non-challenged ear in each animal is a measure of the response of that animal to oxazolone. A comparison between the response of mice treated with the test compound and mice treated with the control indicates the effectiveness of the test compound as an immunomodulatory agent. The compounds were considered to be active at a particular dose if a 20% or greater reduction in ear swelling, which was statistically significant (p <0.05) according to Dunnett's test, between treated and control groups was obtained in two out of three CH tests, (or, where more than three tests have been carried out, a majority of the tests) at that dose (see for example Int. Arch. Allergy, 38, p246-259 (1970)).
Each of the compounds of formula I illustrated in Table A below was active at 50 mg/kg in two out of three tests at 50 mg/kg unless indicated otherwise (see Notes following the Table). The minimum effective dose (ie the lowest dose of those used at which the compound is active as defined above) for each compound is given in Table A. The Example (Ex) number or numbers listed adjacent to each compound indicates the process or processes illustrating the preparation of that compound in the Examples.

Structure (SMILES) | minimal effective dose
Cc1oc2ccccc2c2nn(-c3ccc(Cl)c(Cl)c3)c(=O)c1-2 [Example 36, 2-(3,4-dichlorophenyl)-4-methyl[1]-benzopyrano[4,3-c]pyrazol-3(2H)-one] | 0.3 mg/kg
Cc1oc2ccccc2c2nn(-c3ccc(F)cc3)c(=O)c1-2 [Example 37, 2-(4-fluorophenyl)-4-methyl[1]benzo-pyrano[4,3-c]pyrazol-3(2H)-one] | 1 mg/kg
Cc1oc2ccccc2c2nn(-c3cccc(Cl)c3)c(=O)c1-2 [Example 38, 2-(3-chlorophenyl)-4-methyl[1]benzo-pyrano[4,3-c]pyrazol-3(2H)-one] | 3 mg/kg
COc1ccc(-n2nc3c4ccccc4oc(C)c-3c2=O)cc1 [Example 39, 2-(4-methoxyphenyl)-4-methyl[1]benzo-pyrano[4,3-c]pyrazol-3(2H)-one] | 50 mg/kg
CCc1oc2ccccc2c2nn(-c3ccc(Cl)cc3)c(=O)c1-2 [Example 40, 2-(4-chlorophenyl)-4-ethyl[1]benzo-pyrano[4,3-c]pyrazol-3(2H)-one] | 50 mg/kg
CCOC(=O)Cc1oc2ccccc2c2nn(-c3ccc(Cl)cc3)c(=O)c1-2 [Example 41, ethyl 2-(4-chlorophenyl)-3-oxo-2,3-dihydro[1]benzopyrano[4,3-c]pyrazole-4-acetate] | 3 mg/kg
Cc1oc2ccccc2c2nn(-c3ccccc3)c(=O)c1-2 [Example 42, 4-methyl-2-phenyl[1]benzopyrano-[4,3-c]pyrazol-3(2H)-one] | 50 mg/kg
Cc1ccc(-n2nc3c4ccccc4oc(C)c-3c2=O)cc1 [Example 43, 4-methyl-2-(4-methylphenyl)[1]benzo-pyrano[4,3-c]pyrazol-3(2H)-one] | 10 mg/kg
Cc1oc2ccccc2c2nn(-c3ccc(Br)cc3)c(=O)c1-2 [Example 44, 2-(4-bromophenyl)-4-methyl[1]benzo-pyrano[4,3-c]pyrazol-3(2H)-one] | 1 mg/kg
Cc1oc2ccccc2c2nn(-c3ccc(F)c(Cl)c3)c(=O)c1-2 [Example 45, 2-(3-chloro-4-fluorophenyl)-4-methyl-[1]benzopyrano[4,3-c]pyrazol-3(2H)-one] | 0.3 mg/kg
Cc1ccc(-n2nc3c4ccccc4oc(C)c-3c2=O)cc1Cl [Example 46, 2-(3-chloro-4-methylphenyl)-4-methyl-[1]benzopyrano[4,3-c]pyrazol-3(2H)-one] | 3 mg/kg
Cc1oc2ccccc2c2nn(-c3ccc(C(F)(F)F)cc3)c(=O)c1-2 [Example 47, 4-methyl-2-(4-trifluoromethylphenyl)-[1]benzopyrano[4,3-c]pyrazol-3(2H)-one] | 1 mg/kg
Cc1oc2cc(F)ccc2c2nn(-c3ccc(Cl)cc3)c(=O)c1-2 [Example 48, 2-(4-chlorophenyl)-7-fluoro-4-methyl-[1]benzopyrano[4,3-c]pyrazol-3(2H)-one] | 50 mg/kg
Cc1oc2ccc(Cl)cc2c2nn(-c3ccc(Cl)cc3)c(=O)c1-2 [Example 49, 8-chloro-2-(4-chlorophenyl)-4-methyl-[1]benzopyrano[4,3-c]pyrazol-3(2H)-one] | 50 mg/kg
Cc1ccc2oc(C)c3c(=O)n(-c4ccc(Cl)cc4)nc-3c2c1 [Example 50, 2-(4-chlorophenyl)-4,8-dimethyl[1]-benzopyrano[4,3-c]pyrazol-3(2H)-one] | 50 mg/kg
COc1cccc2oc(C)c3c(=O)n(-c4ccc(Cl)cc4)nc-3c12 [Example 51, 2-(4-chlorophenyl)-9-methoxy-4-methyl-[1]benzopyrano[4,3-c]pyrazol-3(2H)-one] | 50 mg/kg
Cc1oc2cccc(C)c2c2nn(-c3ccc(Cl)cc3)c(=O)c1-2 [Example 52, 2-(4-chlorophenyl)-4,9-dimethyl[1]-benzopyrano[4,3-c]pyrazol-3(2H)-one] | 50 mg/kg
CCOC(=O)Cc1oc2ccccc2c2nn(-c3ccc(F)cc3)c(=O)c1-2 [Example 53, ethyl 2-(4-fluorophenyl)-3-oxo-2,3-dihydro[1]benzopyrano[4,3-c]pyrazole-4-acetate] | 3 mg/kg
Cc1oc2ccc(F)cc2c2nn(-c3ccc(Cl)cc3)c(=O)c1-2 [Example 54, 2-(4-chlorophenyl)-8-fluoro-4-methyl-[1]benzopyrano[4,3-c]pyrazol-3(2H)-one] | 0.1 mg/kg
Cc1oc2cc(Cl)ccc2c2nn(-c3ccc(Cl)cc3)c(=O)c1-2 [Example 55, 7-chloro-2-(4-chlorophenyl)-4-methyl-[1]benzopyrano[4,3-c]pyrazol-3(2H)-one] | 50 mg/kg
Cc1oc2ccc(O)cc2c2nn(-c3ccc(Cl)cc3)c(=O)c1-2 [Example 56, 2-(4-chlorophenyl)-8-hydroxy-4-methyl-[1]benzopyrano[4,3-c]pyrazol-3(2H)-one] | 50 mg/kg
